Reference: paper PMC4147353 (Nature Communications, 2014)

Tests used:
panel of 32 DUBs = format: biochemical, human
[1] = format: physicochemical; conditions: 1 mM DTT or 0.5 mM TCEP, 30 °C for 1 h, DUB assay conditions; data not shown
USP7 = USP7 (Homo sapiens, UniProt Q93009); test: MALDI-TOF DUB assay, inhibitor IC50 on USP7; format: biochemical; conditions: for potency for USP7 relative to the second most sensitive DUB on the panel (USP21): from IC50 values
Chain of USP7 (Q93009 whole entry): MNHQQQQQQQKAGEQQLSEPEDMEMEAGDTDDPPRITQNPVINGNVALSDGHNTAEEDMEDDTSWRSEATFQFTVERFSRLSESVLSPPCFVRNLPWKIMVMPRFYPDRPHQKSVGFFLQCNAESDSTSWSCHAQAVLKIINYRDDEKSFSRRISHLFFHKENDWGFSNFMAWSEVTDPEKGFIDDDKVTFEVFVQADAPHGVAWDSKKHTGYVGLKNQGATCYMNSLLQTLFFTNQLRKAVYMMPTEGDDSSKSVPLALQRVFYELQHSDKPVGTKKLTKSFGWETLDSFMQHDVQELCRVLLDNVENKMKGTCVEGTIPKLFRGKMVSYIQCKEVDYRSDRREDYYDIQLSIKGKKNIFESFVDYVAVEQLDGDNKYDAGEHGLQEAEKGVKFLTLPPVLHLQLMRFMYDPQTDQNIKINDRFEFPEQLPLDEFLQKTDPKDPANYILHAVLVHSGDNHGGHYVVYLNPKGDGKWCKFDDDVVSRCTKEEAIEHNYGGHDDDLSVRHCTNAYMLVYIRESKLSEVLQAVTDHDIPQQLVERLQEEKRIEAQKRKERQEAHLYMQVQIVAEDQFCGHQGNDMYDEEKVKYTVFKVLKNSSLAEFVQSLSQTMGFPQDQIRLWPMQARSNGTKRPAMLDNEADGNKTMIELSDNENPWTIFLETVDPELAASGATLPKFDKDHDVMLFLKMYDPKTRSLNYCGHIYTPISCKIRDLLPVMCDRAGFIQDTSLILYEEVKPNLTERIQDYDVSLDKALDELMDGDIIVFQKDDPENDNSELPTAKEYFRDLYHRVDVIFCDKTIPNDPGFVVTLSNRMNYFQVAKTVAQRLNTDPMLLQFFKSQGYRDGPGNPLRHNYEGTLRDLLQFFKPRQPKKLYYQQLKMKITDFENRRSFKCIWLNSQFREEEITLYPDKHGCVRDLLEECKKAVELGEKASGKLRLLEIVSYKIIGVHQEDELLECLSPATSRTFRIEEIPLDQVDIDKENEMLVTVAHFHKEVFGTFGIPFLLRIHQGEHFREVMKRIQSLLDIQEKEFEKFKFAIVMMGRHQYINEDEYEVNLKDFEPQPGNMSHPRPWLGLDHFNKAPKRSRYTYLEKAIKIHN

N#CSc1cc(SC#N)c(N)nc1N [PR-619]
number of DUBs inhibited (panel of 32 DUBs; of the 32 tested DUBs): 27

CCC[C@H](NC(=O)/C(C#N)=C/c1cccc(Br)n1)c1ccccc1 [WP1130]
reaction with reducing agents DTT and TCEP [1]: significantly reacted with both DTT and TCEP

N#Cc1nc2c(nc1C#N)-c1ccc(Cl)cc1C2=O [HBX 41,108]
number of DUBs inhibited more than 70% (panel of 32 DUBs; of the 32 DUBs tested, at 5 μM): 25

Cc1ccc(S(=O)(=O)c2ccc([N+](=O)[O-])o2)cc1 [NSC 697923]
potency for USP7 relative to the second most sensitive DUB on the panel (USP21) (USP7): five- to eightfold higher potency
potency for USP7 relative to HBX 41,108 (USP7; ratio of IC50 values, 0.08 μM versus 5.97 μM): 70 fold

Cc1ccc(S(=O)(=O)/C=C/C#N)cc1 [BAY 11-7082]
potency for USP7 relative to the second most sensitive DUB on the panel (USP21) (USP7): five- to eightfold higher potency
